BindingDB's records for doi:10.7270/Q2N014W6 (Burnham Center for Chemical Genomics, 2008)

Molecular target: T1, Bcl-2-related protein A1 (Mus musculus, UniProt Q07440)
T1 sequence (Q07440 whole entry): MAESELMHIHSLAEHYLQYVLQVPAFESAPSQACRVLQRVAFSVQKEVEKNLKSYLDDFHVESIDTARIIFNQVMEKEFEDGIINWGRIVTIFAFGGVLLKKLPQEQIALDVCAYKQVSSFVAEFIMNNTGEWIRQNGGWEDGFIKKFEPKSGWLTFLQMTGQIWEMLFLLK
Assay: displacement of Bid BH3 peptide from Bfl-1 – biochemical, fluorescence polarization, FITC-Bid, mouse, primary screen (AID 432)
Details: pH 7; 23 °C

IC50, > 100 µM:
OCCCc1nc2n(n1)C(c1cccs1)CC(c1ccccc1)=N2 (stereo not drawn) [3-(5-phenyl-7-thiophen-2-yl-1,7-dihydro-[1,2,4]triazolo[1,5-a]pyrimidin-2-yl)-1-propanol]
CN1CCC2=C(C#N)C(=N)C(C#N)(C#N)[C@H](c3cccc(Cl)c3)C2C1 (stereo partly drawn) [(8S)-6-amino-8-(3-chlorophenyl)-2-methyl-1,3,8,8a-tetrahydroisoquinoline-5,7,7-tricarbonitrile]
CN1CCC2=C(C#N)C(=N)C(C#N)(C#N)C(c3cccc(Cl)c3Cl)C2C1 (stereo not drawn) [6-azanyl-8-[2,3-bis(chloranyl)phenyl]-2-methyl-1,3,8,8a-tetrahydroisoquinoline-5,7,7-tricarbonitrile]
c1ccc(-c2ccc(C3=Nc4ncnn4C(c4ccco4)C3)cc2)cc1 (stereo not drawn)
O=C1C(=O)N(c2ncccn2)C(c2cccc(Cl)c2)C1C(=O)c1ccco1 (stereo not drawn) [2-(3-chlorophenyl)-3-(furan-2-carbonyl)-4-hydroxy-1-pyrimidin-2-yl-2H-pyrrol-5-one]
CCCN1CCC2=C(C#N)C(=N)C(C#N)(C#N)C(c3cccc(OC)c3OC)C2C1 (stereo not drawn) [6-amino-8-(2,3-dimethoxyphenyl)-2-propyl-1,3,8,8a-tetrahydroisoquinoline-5,7,7-tricarbonitrile]
COc1ccc(N2C(=O)C(=Nc3c(C)n(C)n(-c4ccccc4)c3=O)C(Cl)C2=O)cc1 (stereo not drawn) [3-chloranyl-4-[(1,5-dimethyl-3-oxidanylidene-2-phenyl-pyrazol-4-yl)amino]-1-(4-methoxyphenyl)pyrrole-2,5-dione]
Cc1ccc(C2C3CN(C(C)C)CCC3=C(C#N)C(=N)C2(C#N)C#N)cc1 (stereo not drawn) [SMR000034220]
